ChEMBL document CHEMBL4049411, “Rational Design, Synthesis, and Biological Evaluation of Heterocyclic Quinolones Targeting the Respiratory Chain of Mycobacterium tuberculosis” (J Med Chem, 2017)
≈ marks a conversion by molar mass, not a printed value.

Experiments:
[1] = (§1) Inhibition of replicating Mycobacterium tuberculosis H37Rv NDH assessed as cell growth inhibition after 7 days by MABA method; conditions: 168 h
[2] = Inhibition of Mycobacterium tuberculosis NDH by HTS-based assay
[3] = tested on: Mycobacterium tuberculosis; test: Growth inhibition of replicating Mycobacterium tuberculosis H37Rv at 5 uM after 7 days by MABA method relative to control; type: functional; conditions: 168 h, read-out: GI
[4] = Solubility of compound at pH 1; type: physicochemical; conditions: buffer
[5] = Apparent permeability across apical to basolateral side in human Caco2 cells at 5 uM measured up to 180 mins by LC-MS/MS analysis; type: ADME, cell-based; conditions: Caco-2
[6] = Half life in rat plasma at 1 uM measured up to 3 hrs by LC-MS/MS analysis; type: ADME, cell-free
[7] = Half life in human plasma at 1 uM measured up to 3 hrs by LC-MS/MS analysis; type: ADME, cell-free
[8] = Protein binding in human plasma at 1 uM after 18 hrs by equilibrium dialysis; type: ADME, cell-free; conditions: read-out: PPB (converted)
[9] = Solubility of compound at pH 7.4; type: physicochemical; conditions: buffer
[10] = Solubility of compound in Middlebrook 7H9 broth media containing 10% albumin-dextrose-catalase solution; type: physicochemical
[11] = Aqueous solubility of compound; type: physicochemical; conditions: buffer
[12] = Lipophilicity, logD of compound at pH 7.4; conditions: buffer
[13] = Intrinsic clearance in human microsomes; type: ADME, Microsome; conditions: read-out: CLH
[14] = Intrinsic clearance in rat hepatocytes assessed per million cells; type: ADME, cell-based, Hepatocyte; conditions: read-out: CLH
[15] = tested on: Mycobacterium tuberculosis H37Rv; test: as §1
HepG2 = test: Cytotoxicity against human HepG2 cells after 24 hrs in presence of glucose by MTT assay; type: cell-based; conditions: hepg2, 24 h
[16] = Metabolic stability in human liver microsomes assessed as half life for metabolic turnover at 0.1 to 10 uM preincubated for 60 mins in presence of NADPH measured up to 60 mins by mass spectroscopic analysis; type: ADME, microsome
[17] = Metabolic stability in mouse liver microsomes assessed as half life for metabolic turnover at 0.1 to 10 uM preincubated for 60 mins in presence of NADPH measured up to 60 mins by mass spectroscopic analysis; type: ADME, microsome
[18] = Metabolic stability in rat liver microsomes assessed as half life for metabolic turnover at 0.1 to 10 uM preincubated for 60 mins in presence of NADPH measured up to 60 mins by mass spectroscopic analysis; type: ADME, microsome
[19] = tested on: Mycobacterium tuberculosis; test: Growth inhibition of dormant Mycobacterium tuberculosis H37Rv incubated for 7 days under anaerobic condition followed incubation under aerobic condition for 7 days by MABA; type: functional; conditions: 168 h
[20] = Intrinsic clearance in mouse microsomes; type: ADME, Microsome; conditions: read-out: CLH
[21] = Intrinsic clearance in rat microsomes; type: ADME, Microsome; conditions: read-out: CLH
[22] = Apparent permeability across basolateral to apical side in human Caco2 cells at 5 uM measured up to 180 mins by LC-MS/MS analysis; type: ADME, cell-based; conditions: Caco-2
CYP2C8 = biological target: T1, CYP2C8 (Homo sapiens, UniProt P10632); test: Inhibition of human microsomal CYP2C8 expressed in insect cells at 10 uM using DBOMF as substrate measured every minute for 1 hr by fluorescence-based assay; type: ADME; conditions: probe DBOMF
T1 sequence (P10632 whole entry): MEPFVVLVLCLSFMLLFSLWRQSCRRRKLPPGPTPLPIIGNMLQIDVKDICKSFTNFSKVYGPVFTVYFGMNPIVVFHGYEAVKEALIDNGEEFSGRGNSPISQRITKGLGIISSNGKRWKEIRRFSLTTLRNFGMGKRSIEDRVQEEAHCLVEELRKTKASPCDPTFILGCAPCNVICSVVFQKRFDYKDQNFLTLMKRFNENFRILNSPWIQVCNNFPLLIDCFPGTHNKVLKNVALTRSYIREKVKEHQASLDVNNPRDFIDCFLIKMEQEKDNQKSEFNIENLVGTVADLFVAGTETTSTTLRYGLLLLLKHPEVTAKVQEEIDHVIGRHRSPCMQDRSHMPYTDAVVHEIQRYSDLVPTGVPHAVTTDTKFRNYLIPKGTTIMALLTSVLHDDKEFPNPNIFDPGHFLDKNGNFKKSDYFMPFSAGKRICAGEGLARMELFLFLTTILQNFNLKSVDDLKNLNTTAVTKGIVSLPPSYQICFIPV

CYP2C9 = CYP2C9 (Homo sapiens, UniProt P11712); test: Inhibition of human microsomal CYP2C9 expressed in insect cells at 10 uM using OOMR as substrate measured every minute for 1 hr by fluorescence-based assay; type: ADME; conditions: probe OOMR
CYP2D6 = CYP2D6 (Homo sapiens, UniProt P10635); test: Inhibition of human microsomal CYP2D6 expressed in insect cells at 10 uM using MOBFC as substrate measured every minute for 1 hr by fluorescence-based assay; type: ADME; conditions: probe MOBFC
CYP3A4 = CYP3A4 (Homo sapiens, UniProt P08684); test: Inhibition of human microsomal CYP3A4 expressed in insect cells at 10 uM using BOMCC as substrate measured every minute for 1 hr by fluorescence-based assay; type: ADME; conditions: probe BOMCC
CYP3A5 = CYP3A5 (Homo sapiens, UniProt P20815); test: Inhibition of human microsomal CYP3A5 expressed in insect cells at 10 uM using BOMCC as substrate measured every minute for 1 hr by fluorescence-based assay; type: ADME; conditions: probe BOMCC
[23] = biological target: Voltage-gated inwardly rectifying potassium channel KCNH2 (Homo sapiens, UniProt Q12809); test: Inhibition of human ERG
Salmonella typhimurium = test: Mutagenicity in Salmonella typhimurium by Ames test; type: toxicity; conditions: salmonella enterica subsp. enterica serovar typhimurium
[24] = Drug level in Sprague-Dawley rat urine treated with 2-(4-(3,3-Difluoropyrrolidin-1-yl)phenyl)-5,7-difluoro-3-methylquinolin-4-yl acetate at 50 mg/kg, po via gavage up to 9 hrs by HPLC analysis; type: ADME, organism-based; conditions: in vivo
[25] = Drug level in Sprague-Dawley rat bile treated with 2-(4-(3,3-Difluoropyrrolidin-1-yl)phenyl)-5,7-difluoro-3-methylquinolin-4-yl acetate at 50 mg/kg, po via gavage up to 9 hrs by HPLC analysis; type: ADME, organism-based; conditions: in vivo
[26] = Retention time of compound by HPLC anlaysis

Voltage-gated inwardly rectifying potassium channel KCNH2, sequence (Q12809 whole entry): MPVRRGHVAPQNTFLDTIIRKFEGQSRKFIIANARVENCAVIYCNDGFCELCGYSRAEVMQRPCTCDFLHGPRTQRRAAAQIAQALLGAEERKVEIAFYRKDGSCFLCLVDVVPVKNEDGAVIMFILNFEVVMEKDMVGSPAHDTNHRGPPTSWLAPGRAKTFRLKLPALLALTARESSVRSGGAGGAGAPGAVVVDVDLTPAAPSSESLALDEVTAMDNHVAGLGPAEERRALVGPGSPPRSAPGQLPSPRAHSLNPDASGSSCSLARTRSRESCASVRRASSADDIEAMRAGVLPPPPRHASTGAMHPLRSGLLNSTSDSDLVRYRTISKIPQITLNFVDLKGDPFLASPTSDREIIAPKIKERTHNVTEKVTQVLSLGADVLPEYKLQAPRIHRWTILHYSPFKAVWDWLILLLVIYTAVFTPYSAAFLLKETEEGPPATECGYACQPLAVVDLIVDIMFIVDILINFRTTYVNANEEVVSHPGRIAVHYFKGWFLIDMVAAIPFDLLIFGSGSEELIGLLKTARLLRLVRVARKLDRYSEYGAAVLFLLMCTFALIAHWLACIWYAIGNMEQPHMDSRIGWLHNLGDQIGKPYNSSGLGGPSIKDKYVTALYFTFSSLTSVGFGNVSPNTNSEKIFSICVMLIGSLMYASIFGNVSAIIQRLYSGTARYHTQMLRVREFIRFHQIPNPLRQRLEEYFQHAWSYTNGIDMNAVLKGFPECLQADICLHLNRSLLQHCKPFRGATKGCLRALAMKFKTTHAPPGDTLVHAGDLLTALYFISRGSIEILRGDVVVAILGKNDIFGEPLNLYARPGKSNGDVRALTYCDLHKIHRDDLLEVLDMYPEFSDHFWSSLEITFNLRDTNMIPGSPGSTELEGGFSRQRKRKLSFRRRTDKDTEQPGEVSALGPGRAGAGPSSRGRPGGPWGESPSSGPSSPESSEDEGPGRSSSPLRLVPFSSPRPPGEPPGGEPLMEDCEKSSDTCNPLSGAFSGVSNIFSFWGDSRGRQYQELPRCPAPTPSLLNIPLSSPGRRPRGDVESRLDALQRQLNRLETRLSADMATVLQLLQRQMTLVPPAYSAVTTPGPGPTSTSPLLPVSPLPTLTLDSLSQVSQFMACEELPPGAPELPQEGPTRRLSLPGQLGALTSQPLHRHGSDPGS
CYP2D6, sequence (P10635 whole entry): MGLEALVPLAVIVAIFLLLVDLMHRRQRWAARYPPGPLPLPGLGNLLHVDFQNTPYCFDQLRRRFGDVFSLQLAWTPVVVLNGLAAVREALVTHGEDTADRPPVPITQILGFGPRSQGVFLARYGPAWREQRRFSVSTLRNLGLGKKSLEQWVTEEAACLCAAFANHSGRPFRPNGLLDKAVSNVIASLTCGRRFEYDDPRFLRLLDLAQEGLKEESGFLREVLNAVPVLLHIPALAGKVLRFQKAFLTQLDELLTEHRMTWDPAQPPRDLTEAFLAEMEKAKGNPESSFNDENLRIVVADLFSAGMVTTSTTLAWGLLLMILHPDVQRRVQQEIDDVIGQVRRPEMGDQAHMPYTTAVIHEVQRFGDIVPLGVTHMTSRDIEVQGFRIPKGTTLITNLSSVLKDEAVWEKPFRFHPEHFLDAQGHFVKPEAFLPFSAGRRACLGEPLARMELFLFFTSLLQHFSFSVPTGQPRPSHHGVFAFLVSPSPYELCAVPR
CYP3A4, sequence (P08684 whole entry): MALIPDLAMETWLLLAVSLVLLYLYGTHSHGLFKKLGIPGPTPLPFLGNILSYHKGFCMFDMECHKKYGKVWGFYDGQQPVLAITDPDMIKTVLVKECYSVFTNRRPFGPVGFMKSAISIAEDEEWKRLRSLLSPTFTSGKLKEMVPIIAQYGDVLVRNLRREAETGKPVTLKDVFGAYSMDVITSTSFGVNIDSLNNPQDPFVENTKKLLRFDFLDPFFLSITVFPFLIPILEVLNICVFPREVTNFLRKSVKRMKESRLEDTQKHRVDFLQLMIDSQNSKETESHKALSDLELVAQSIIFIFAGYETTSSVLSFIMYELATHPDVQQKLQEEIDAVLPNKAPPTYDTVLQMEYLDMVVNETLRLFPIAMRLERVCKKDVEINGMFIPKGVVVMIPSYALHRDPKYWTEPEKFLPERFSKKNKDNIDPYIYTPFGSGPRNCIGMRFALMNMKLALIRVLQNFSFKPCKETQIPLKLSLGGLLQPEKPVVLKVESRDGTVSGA
CYP3A5, sequence (P20815 whole entry): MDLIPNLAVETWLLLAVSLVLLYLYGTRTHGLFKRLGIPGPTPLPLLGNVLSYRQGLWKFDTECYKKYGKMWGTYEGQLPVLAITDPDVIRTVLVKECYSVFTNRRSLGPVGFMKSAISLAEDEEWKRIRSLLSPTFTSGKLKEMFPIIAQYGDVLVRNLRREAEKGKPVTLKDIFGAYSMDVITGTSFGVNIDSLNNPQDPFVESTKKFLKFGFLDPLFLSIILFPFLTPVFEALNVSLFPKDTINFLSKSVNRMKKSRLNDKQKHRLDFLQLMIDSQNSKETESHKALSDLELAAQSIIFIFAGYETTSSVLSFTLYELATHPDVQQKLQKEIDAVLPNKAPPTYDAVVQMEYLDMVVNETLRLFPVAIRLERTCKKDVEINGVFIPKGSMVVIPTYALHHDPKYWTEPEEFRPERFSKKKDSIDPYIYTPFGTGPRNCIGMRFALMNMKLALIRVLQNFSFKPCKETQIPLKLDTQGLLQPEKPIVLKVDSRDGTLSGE
CYP2C9, sequence (P11712 whole entry): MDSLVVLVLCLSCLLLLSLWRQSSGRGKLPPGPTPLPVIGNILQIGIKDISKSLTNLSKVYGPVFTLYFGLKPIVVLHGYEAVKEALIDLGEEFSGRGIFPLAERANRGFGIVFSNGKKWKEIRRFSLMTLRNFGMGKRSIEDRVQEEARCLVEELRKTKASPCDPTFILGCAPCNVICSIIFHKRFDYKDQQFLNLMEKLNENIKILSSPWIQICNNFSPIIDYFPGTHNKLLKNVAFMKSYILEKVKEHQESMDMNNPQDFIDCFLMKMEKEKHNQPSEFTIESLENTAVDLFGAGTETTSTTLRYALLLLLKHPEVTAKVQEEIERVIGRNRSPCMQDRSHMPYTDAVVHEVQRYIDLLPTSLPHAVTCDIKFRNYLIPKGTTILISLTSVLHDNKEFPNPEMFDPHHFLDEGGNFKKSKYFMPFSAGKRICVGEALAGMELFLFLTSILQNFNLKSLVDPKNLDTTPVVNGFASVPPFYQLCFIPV

| Structure (SMILES) | IC50 [1] | solubility [4] | Papp A→B at 3 h, 5 µM [5] | half-life at 1 µM [6] | half-life at 1 µM [7] | fraction unbound at 18 h, 1 µM [8] | solubility [9] | solubility [10] | IC90 [15] | Activity (HepG2) | half-life at up to 10 µM [16] | half-life at up to 10 µM [17] | half-life at up to 10 µM [18] | Drug metabolism [24] | Drug metabolism [25] | Retention time [26] | other results |
| --- | --- | --- | --- | --- | --- | --- | --- | --- | --- | --- | --- | --- | --- | --- | --- | --- | --- |
| COc1ccc2c(=O)c(C)c(-c3ccc(N4CCCCC4)cc3)[nH]c2c1 | 730 nM |  |  |  |  |  |  |  |  |  |  |  |  |  |  |  | IC50 [2]: 730 nM; inhibition of growth at 5 µM [3]: > 50% |
| Cc1c(-c2ccc(N3CC[C@H](F)C3)cc2)[nH]c2cc(F)cc(F)c2c1=O | 1800 nM | < 1 µg/mL | 15.5 ×10⁻⁶ cm/s | > 3 h | > 3 h | 0.0103 to 0.014 | < 1 µg/mL | 2.5 µg/mL (≈ 6.98 µM) |  |  |  |  |  |  |  |  | solubility [11]: 1 µM (≈ 0.358 µg/mL); logD [12]: 3.6; microsomal CLint [13]: 197 µL/min/mg; hepatocyte CLint [14]: 150 µL/min/1e6 cells |
| Cc1c(-c2ccc(N3CCC(F)(F)C3)cc2)[nH]c2cc(F)cc(F)c2c1=O | 525 to 530 nM | < 1 µg/mL | 10 ×10⁻⁶ cm/s | > 3 h | > 3 h | 0.003 to 0.027 | < 1 µg/mL | 55 µg/mL (≈ 146 µM) | 1100 nM | > 100 µM | 1.21 h | 1.92 h | 1.03 h | Metabolite_Detected | Metabolite_Detected | 11.4 min | solubility [11]: 0.2 µM (≈ 0.0753 µg/mL); microsomal CLint [13]: 9.52 to 89.7 µL/min/mg; hepatocyte CLint [14]: 52.2 µL/min/1e6 cells; IC90 [19]: 76 nM; microsomal CLint [20]: 6.03 µL/min/mg; microsomal CLint [21]: 11.2 µL/min/mg; Papp B→A at 3 h, 5 µM [22]: 9.8 ×10⁻⁶ cm/s; inhibition at 1 h, 10 µM (CYP2C8): 38%; inhibition at 1 h, 10 µM (CYP2C9): 0%; inhibition at 1 h, 10 µM (CYP2D6): 0%; inhibition at 1 h, 10 µM (CYP3A4): 0%; inhibition at 1 h, 10 µM (CYP3A5): 0%; IC50 [23]: > 25000 nM; Activity (Salmonella typhimurium): Non-Toxic |
| Cc1c(-c2ccc(N3CC(O)C(F)(F)C3)cc2)nc2cc(F)cc(F)c2c1O (stereo not given) |  |  |  |  |  |  |  |  |  |  |  |  |  | Metabolite_Detected | Metabolite_Detected | 10.1 min |  |
| Cc1c(-c2ccc(N3CCCCC3)cc2)[nH]c2ccccc2c1=O | 1500 nM |  |  |  |  |  |  |  |  |  |  |  |  |  |  |  | IC50 [2]: 1500 nM; inhibition of growth at 5 µM [3]: > 50% |
| OCc1c(-c2ccc(N3CC(O)C(F)(F)C3)cc2)nc2cc(F)cc(F)c2c1O (stereo not given) |  |  |  |  |  |  |  |  |  |  |  |  |  | Metabolite_Detected | Metabolite_Detected | 8.6 min |  |
| Cc1c(-c2ccc(-n3cccc3)cc2)[nH]c2cc(F)cc(F)c2c1=O | 432 to 440 nM | 5.1 µg/mL (≈ 15.2 µM) | 31 ×10⁻⁶ cm/s | > 3 h | > 3 h | 0.039 | 3.6 µg/mL (≈ 10.7 µM) | 61 µg/mL (≈ 181 µM) | 690 nM | 141 µM | 0.17 h | 0.345 h | 0.502 h |  |  |  |  |
| Cc1c(-c2ccc(N3CCCC(F)C3)cc2)[nH]c2cc(F)cc(F)c2c1=O (stereo not given) | 300 to 310 nM | > 150 µg/mL | 22.9 ×10⁻⁶ cm/s | > 3 h | > 3 h | 0.0155 | < 1 µg/mL | 10 µg/mL (≈ 26.9 µM) | 560 nM | 188.1 µM | 0.13 h | 0.113 h | 0.168 h |  |  |  |  |
